Reference: article PMC10269604, “A 4-Hydroxybenzoic Acid-Mediated Signaling System Controls the Physiology and Virulence of Shigella sonnei” (Microbiology Spectrum, 2023)

Tests used:
UbiC (SSON_4219) = target: T1, UbiC (SSON_4219) (Shigella sonnei, UniProt Q3YUU5); assay: in vitro conversion to 4-HBA; format: biochemical; conditions: product 4-hydroxybenzoic acid
T1 construct: intact ubiC gene in pET28a(+), His-tagged fusion, expressed in E. coli BL21(DE3), His-Tag column

AaeR (SSON_3385) = conditions: AaeR labelled with L014 Monolith protein labeling kit; 60% LED power, 40% MST power

T1 sequence (Q3YUU5 whole entry, the tested form may be a part): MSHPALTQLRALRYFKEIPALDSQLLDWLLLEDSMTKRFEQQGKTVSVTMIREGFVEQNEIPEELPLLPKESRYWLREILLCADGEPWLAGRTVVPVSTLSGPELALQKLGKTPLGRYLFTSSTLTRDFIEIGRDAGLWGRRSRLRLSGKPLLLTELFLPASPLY

Structure (SMILES)	in vitro conversion to 4-HBA (UbiC (SSON_4219))	Kd (AaeR (SSON_3385))
C=C(O[C@@H]1C=C(C(=O)O)C=C[C@H]1O)C(=O)O [chorismic acid]	UbiC directly catalyzed the conversion of chorismic acid to 4-HBA	
O=C(O)c1ccc(O)cc1 [4-hydroxybenzoic acid]		23.1 ± 0.76 µM
